Experimental data reported in US12281149B2, “Modulators of G-protein coupled receptors” (priority 2021, dated 2025).
pEC50: −log10 of the molar value.

Experiments:
Assay type in all cases: cell-based
GIP receptor [1] = target: T1, GIP receptor (Homo sapiens, UniProt P48546); assay: PathHunter β-arrestin assay, GIP receptor; design: host or cells: PathHunter CHO-K1 GIPR β-Arrestin Cell Line; conditions: β-arrestin-2 recruitment, PathHunter CHO-K1 GIPR β-Arrestin Cell Line, 90 min at 37° C.; normalized to GIP; read-out: GIPR β Arrestin EC50
T1 sequence (P48546 22-466): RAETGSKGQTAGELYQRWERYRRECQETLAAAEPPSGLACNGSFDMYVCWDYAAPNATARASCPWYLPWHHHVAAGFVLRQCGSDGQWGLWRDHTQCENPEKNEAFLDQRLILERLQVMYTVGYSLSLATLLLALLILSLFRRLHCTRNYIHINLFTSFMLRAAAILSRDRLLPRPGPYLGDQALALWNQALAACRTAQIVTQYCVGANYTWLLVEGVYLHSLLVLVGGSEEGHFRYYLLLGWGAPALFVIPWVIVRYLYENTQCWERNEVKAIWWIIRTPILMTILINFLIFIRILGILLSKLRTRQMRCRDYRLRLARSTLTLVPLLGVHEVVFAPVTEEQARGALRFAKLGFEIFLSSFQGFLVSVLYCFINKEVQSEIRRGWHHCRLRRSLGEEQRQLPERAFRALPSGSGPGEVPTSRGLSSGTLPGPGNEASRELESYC

GLP-1 receptor [2] = target: T2, GLP-1 receptor (Homo sapiens, UniProt P43220); assay: HitHunter cAMP assay, GLP-1 receptor; conditions: for pEC50: CHO cells stably expressing human GLP-1 receptor, cAMP accumulation, 30 min, read-out: EC50 GLP-1R; for Emax: CHO cells, cAMP, normalized to maximum signal from GLP-1 (high) and DMSO (low), read-out: Emax GLP-1R
T2 sequence (P43220 24-463): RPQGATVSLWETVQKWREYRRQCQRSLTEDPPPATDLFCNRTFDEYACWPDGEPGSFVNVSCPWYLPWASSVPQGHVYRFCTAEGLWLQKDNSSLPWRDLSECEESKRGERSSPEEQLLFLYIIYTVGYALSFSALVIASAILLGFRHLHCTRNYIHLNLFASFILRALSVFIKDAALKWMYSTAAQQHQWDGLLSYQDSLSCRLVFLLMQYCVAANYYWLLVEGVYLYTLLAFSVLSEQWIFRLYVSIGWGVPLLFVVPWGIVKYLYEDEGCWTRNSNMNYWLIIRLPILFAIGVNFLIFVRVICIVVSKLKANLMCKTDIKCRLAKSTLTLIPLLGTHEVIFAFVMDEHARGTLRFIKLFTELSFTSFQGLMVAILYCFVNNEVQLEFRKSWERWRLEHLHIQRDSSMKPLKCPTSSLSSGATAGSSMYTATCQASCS

GIP receptor [3] = target: T1, GIP receptor; assay: HitHunter cAMP assay, GIP receptor; conditions: for pEC50: CHO cells stably expressing GIP receptor, cAMP accumulation, 30 min, read-out: EC50 GIP-1R; for Emax: CHO cells, cAMP, normalized to maximum signal from GIP (high) and DMSO (low), read-out: Emax GIP-1R
GLP-1 receptor [4] = target: T2, GLP-1 receptor; assay: PathHunter β-arrestin assay, GLP-1 receptor; design: host or cells: PathHunter CHO-K1 GLP1R β-Arrestin Cell Line; conditions: β-arrestin-2 recruitment, PathHunter CHO-K1 GLP1R β-Arrestin Cell Line, 90 min at 37° C.; normalized to GLP-1; read-out: GLP-1R β Arrestin EC50

**Q.** `CC[C@H](C)[C@H](NC(=O)[C@H](CO)NC(=O)[C@H](Cc1ccc(O)cc1)NC(=O)[C@H](CC(=O)O)NC(=O)[C@H](CO)NC(=O)[C@@H](NC(=O)[C@H](Cc1ccccc1)NC(=O)[C@@H](NC(=O)CNC(=O)[C@H](CCC(=O)O)NC(=O)CCNC(=O)[C@]1(c2ccccc2)CNC(=O)C1)[C@@H](C)O)[C@@H](C)O)C(=O)N[C@@H](Cc1ccc(O)cc1)C(=O)N[C@@H](CC(C)C)C(=O)N[C@@H](CC(=O)O)C(=O)N[C@@H](CCCCN)C(=O)N[C@@H](CCCCNC(=O)COCCOCCNC(=O)COCCOCCNC(=O)CC[C@H](NC(=O)CCCCCCCCCCCCCCCCCCC(=O)O)C(=O)O)C(=O)N[C@@H](C)C(=O)N[C@@H](C)C(=O)NC(C)(C)C(=O)N[C@@H](CCC(=O)O)C(=O)N[C@@H](Cc1ccccc1)C(=O)N[C@H](C(=O)N[C@@H](CC(N)=O)C(=O)N[C@@H](Cc1c[nH]c2ccccc12)C(=O)N[C@@H](CC(C)C)C(=O)N[C@@H](CC(C)C)C(=O)N[C@@H](C)C(=O)NCC(=O)NCC(=O)N1CCC[C@H]1C(=O)N[C@@H](CO)C(=O)N[C@@H](CO)C(=O)NCC(=O)N[C@@H](C)C(=O)N1CCC[C@H]1C(=O)N1CCC[C@H]1C(=O)N1CCC[C@H]1C(=O)N[C@@H](CO)C(N)=O)C(C)C` (single isomer, unassigned) [Compound 113] was tested. Which pEC50 (GIP receptor [1]) did it give?
**A.** < 6.00

**Q.** What about the pEC50 (GLP-1 receptor [2]) of the same molecule?
**A.** 9.00 to 10.00

**Q.** And the Emax (GLP-1 receptor [2])?
**A.** 112%

**Q.** What about the pEC50 (GIP receptor [3]) of the same molecule?
**A.** 8.00 to 9.00

**Q.** What about the Emax (GIP receptor [3]) of the same molecule?
**A.** 98%

**Q.** And the pEC50 (GLP-1 receptor [4])?
**A.** < 6.00

**Q.** Which results are given for `CC[C@H](C)[C@H](NC(=O)[C@H](CO)NC(=O)[C@H](CCCCNC(=O)COCCOCCNC(=O)COCCOCCNC(=O)CC[C@H](NC(=O)CCCCCCCCCCCCCCCCCCC(=O)O)C(=O)O)NC(=O)[C@H](CC(=O)O)NC(=O)[C@H](CO)NC(=O)[C@@H](NC(=O)[C@H](Cc1ccccc1)NC(=O)[C@@H](NC(=O)CNC(=O)[C@H](CCC(=O)O)NC(=O)CCNC(=O)[C@@]1(c2ccccc2)CNC(=O)C1)[C@@H](C)O)[C@@H](C)O)C(=O)N[C@@H](Cc1ccc(O)cc1)C(=O)N[C@@H](CC(C)C)C(=O)N[C@@H](CC(=O)O)C(=O)N[C@@H](CCCCN)C(=O)N[C@@H](CCC(N)=O)C(=O)N[C@@H](C)C(=O)N[C@@H](C)C(=O)NC(C)(C)C(=O)N[C@@H](CCC(=O)O)C(=O)N[C@@H](Cc1ccccc1)C(=O)N[C@H](C(=O)N[C@@H](CC(N)=O)C(=O)N[C@@H](Cc1c[nH]c2ccccc12)C(=O)N[C@@H](CC(C)C)C(=O)N[C@@H](CC(C)C)C(=O)N[C@@H](C)C(=O)NCC(=O)NCC(=O)N1CCC[C@H]1C(=O)N[C@@H](CO)C(=O)N[C@@H](CO)C(=O)NCC(=O)N[C@@H](C)C(=O)N1CCC[C@H]1C(=O)N1CCC[C@H]1C(=O)N1CCC[C@H]1C(=O)N[C@@H](CO)C(N)=O)C(C)C` (single isomer, unassigned) [Compound 123]?
**A.** pEC50 (GIP receptor [1]): < 6.00; pEC50 (GLP-1 receptor [2]): 7.00 to 8.00; Emax (GLP-1 receptor [2]): 95%; pEC50 (GIP receptor [3]): 7.00 to 8.00; Emax (GIP receptor [3]): 103%; pEC50 (GLP-1 receptor [4]): < 6.00
